Assay results from publication PMC10206040, “Identification of novel anti-amoebic pharmacophores from kinase inhibitor chemotypes” (Frontiers in Microbiology, 2023).
Read-outs that look alike come from different tables or passages of the source.

Tests used:
[1] = Human fetal lung fibroblast (MRC5) cell cytotoxicity assay (resazurin); conditions: human
Procedure: (§1) Intermediate plates were made as described, adding 95 μL of DMEM complete media to 5 μL of compound per well setting a 5% DMSO amount. Log-phase MRC5 cells were removed from a T-75 TC flask using TrypLE® Express (Thermo®) and dispersed by gentle pipetting. Cell density was adjusted to working concentration in prewarmed DMEM medium: 25,000 cells in 90 μL of culture were plated in 96-well transparent Nunclon plates and allowed to settle for 24 h at 37°C and 5% CO2. […] Plates were incubated for 48 h at 37°C and 5% CO2. At 4 h prior to fluorescence measurement, 20 μL of 500 μM resazurin solution was added.
(§2) A four-parameter equation was used to fit the dose–response curves and determination of EC50 by SigmaPlot ® 13.0 software. Assays were performed in duplicate at least twice for positive compounds, to achieve a minimal […] per dose response.

MRC5 cells = test: as above; conditions: for MRC5 TC50 ± Standard Deviation: Table S2, in µM
Procedure: as §1, §2

[2] = tested on: Naegleria fowleri (ATCC 30215) trophozoites; test: microbe, parasite or virus in culture
Procedure: Trophozoites were routinely grown axenically at 34°C, 5% CO2, in Nelson’s complete medium (NCM) in non-vented 75 cm^2 tissue culture flasks (Olympus), until the cells were 80–90% confluent. For sub-culturing, cells were placed on ice to detach the cells from the culture flasks. […] Complete NCM media is prepared by the addition of 10% fetal bovine serum (FBS) and 100 U/mL penicillin, and 100 μg/mL streptomycin antibiotics.
Trophozoites were routinely cultured as described above and only logarithmic trophozoites were used.
All assays were incubated at each of the parasites’ representative growth temperatures, described above, for 72 h. At the 72-h time point, 25 μL of CellTiter-Glo 2.0 reagent was added to all wells of the 96-well plates by hand. The plates were protected from light and contents were mixed using an orbital shaker at 300 rpm at room temperature for 2 min to induce cell lysis. After shaking, the plates were equilibrated at room temperature for 10 min to stabilize the luminescent signal. The ATP luminescent signal (relative light units; RLUs) were measured […] with a SpectraMax I3X plate reader (Molecular Devices, Sunnyvale, CA, United States). […] Values reported are from a minimum of three biological replicates with standard deviation.

[3] = Rat skeletal muscle cell line (L6) cytotoxicity assay (resazurin); conditions: rat
Procedure: (§3) One hundred microliters (100 μL) per well of culture medium containing the compounds and controls were added to L6 cells previously cultured (4 × 10^3 L6 cells per well). After 72 h at 37°C the medium was exchanged, and the viable cell number was determined by resazurin (Sigma–Aldrich) reduction. 20 μl of resazurin (1.1 mg/ml) was added to each well and incubated in the dark for 2 h at 37°C.

L6 cells = test: as above; conditions: Table S2; in µM
Procedure: as §3

THP-1 = test: Cytotoxicity assay in THP-1 (MTT); assay type: cell-based; conditions: Table S2, 72 h, maximal concentration 50 μM
Procedure: Cytotoxicity assay in TH P-1. Cellular toxicity of all compounds was determined using the colorimetric MTT-based assay after incubation at 37 °C for 72 h in the presence of increasing concentrations of compounds (final maximal concentration was 50 μM in 0.5% DMSO per well) [ 1] . The results are expressed […]
cells. Assays were performed in duplicate at least twice to achieve a minimal n=3 per dose response. […]
Cytotoxicity assay in THP-1. Cellular toxicity of all compounds was determined using the colorimetric MTT-based assay after incubation at 37 °C for 72 h in the presence of increasing concentrations of compounds (final maximal concentration was 50 μM in 0.5% DMSO per well). […] Assays were performed in duplicate at least twice to achieve a minimal n=3 per dose response.

[4] = tested on: Acanthamoeba castellanii T4 isolate (ATCC 50370) trophozoites; test: CellTiter-Glo 2.0 trophocidal assay, A. castellanii; assay type: cell-based; conditions: Acanthamoeba castellanii, ATCC50370, 72 h, logarithmic trophozoites, 72 h, n = 3; read-out: Acanthamoeba castellanii EC50 ± SD
Source text: This isolate was purchased from American Type Culture Collection (ATCC). […] For sub-culturing, cells were mechanically harvested to detach the cells from the culture flasks.

[5] = tested on: Balamuthia mandrillaris (CDC:V039; ATCC 50209) trophozoites; test: CellTiter-Glo 2.0 trophocidal assay, B. mandrillaris; assay type: cell-based
Source text: For sub-culturing, 0.25% Trypsin–EDTA (Gibco) cell detachment reagent was used to detach the cells from the culture flasks.

[6] = MRC5 cells (human fetal lung fibroblasts)
[7] = Naegleria fowleri, ATCC30215, 72 h, read-out: Naegleria fowleri EC50 ± SD, logarithmic trophozoites, 72 h, n = 3 (converted)
[8] = L6 cells (rat skeletal muscle cell line)
[9] = Naegleria fowleri, 72 h, read-out: Naegleria fowleri EC50 ± SD, logarithmic trophozoites, 72 h, n = 3 (converted)
[10] = Balamuthia mandrillaris, ATCC50209, 72 h, logarithmic trophozoites, 72 h, n = 3, read-out: Balamuthia mandrillaris EC50 ± SD

SMILES | CC50 at 48 h [1, 6] | MRC5 TC50 ± Standard Deviation (MRC5 cells) | EC50 [2, 7] | CC50 at 72 h [3, 8] | L6 TC50 ± Standard Deviation (L6 cells) | THP-1 TC50 ± Standard Deviation (THP-1) | EC50 [2, 9] | EC50 [4] | EC50 [5, 10] | EC50 ([5]; logarithmic trophozoites, 72 h, n = 3, read-out: Balamuthia mandrillaris EC50 ± SD) | EC50 ([2]; read-out: Naegleria fowleri EC50 ± SD, logarithmic trophozoites, 72 h, n = 3) | selectivity versus MRC5 ([2]; N. fowleri EC50 versus MRC5 cells) | selectivity versus THP-1 ([2]; N. fowleri EC50 versus THP-1 cells) | activity/toxicity against MRC5 cells (in words) (MRC5 cells; up to 50 μM) | CC50 at 48 h [1] | CC50 at 72 h [3] | EC50 ([5]; Balamuthia mandrillaris, ATCC50209, 72 h, read-out: Balamuthia mandrillaris EC50 ± SD, logarithmic trophozoites, 72 h, n = 3 (converted))
FC1(F)CCN(c2nc(Nc3ccsc3)nc3[nH]cnc23)CC1 [Compound 6e] | > 50 µM | > 50 | > 20 µM | > 50 µM | > 50 | > 50 | – | – | – | – | – | – | – | – | – | – | –
Cn1cc(Nc2nc(N3CCOCC3)c3nc[nH]c3n2)cn1 [Compound S22] | – | 19 ± 0.42 | – | – | 11 ± 1.0 | 19 ± 0.52 | > 20 µM | > 20 µM | > 20 µM | – | – | – | – | – | – | – | –
O=C(N[C@H](CO)c1ccccc1)c1cc(-c2c[nH]c3ncccc23)[nH]n1 [Compound S12, (S)-N-(2-Hydroxy-1-phenylethyl)-5-(1H-pyrrolo[2,3-b]pyridin-3-yl)-1H-pyrazole-3-carboxamide] | – | 42 ± 7.7 | > 20 µM | – | > 17 | 42 ± 11 | – | > 20 µM | > 20 µM | – | – | – | – | – | – | – | –
CCOc1cc(-c2ccnc(N)n2)cc2c1c(N)nn2C [Compound 1d] | > 50 µM | > 50 | > 20 µM | > 17 µM | > 17 ± 0.052 | > 50 | – | 12 ± 8.3 µM | 9.49 ± 0.23 µM | 9.5 ± 0.23 µM | – | – | – | – | – | – | –
N#Cc1cccc(-c2n[nH]c3ncc(-c4cnn(C5CCOCC5)c4)cc23)c1 [Compound 4a] | > 50 µM | > 50 | – | 2.8 ± 0.92 µM | 2.8 ± 0.92 | > 50 | – | 11 ± 9 µM | 3.3 ± 0.62 µM | – | – | – | – | – | – | – | –
Cn1cc(-c2cnc3[nH]cc(-c4cncc(C#N)c4)c3c2)cn1 [Compound 4e] | > 50 µM | > 50 | > 20 µM | – | > 50 | > 50 | – | – | 8.3 ± 1.3 µM | – | – | – | – | – | – | – | –
Fc1ccc(Nc2nc(NCC(F)(F)F)c3nc[nH]c3n2)cc1 [Compound S23] | – | > 50 | – | – | > 50 | > 50 | > 20 µM | > 20 µM | > 20 µM | – | – | – | – | – | – | – | –
O=C(N[C@H](CO)c1ccccc1)c1ccc(-c2c[nH]c3ncccc23)nc1 [Compound S15, (S)-N-(2-Hydroxy-1-phenylethyl)-6-(1H-pyrrolo[2,3-b]pyridin-3-yl)nicotinamide] | – | > 50 | > 20 µM | – | > 50 | 26 ± 2.0 | – | > 20 µM | > 20 µM | – | – | – | – | – | – | – | –
Nc1ccnc(-c2cc3c4c(n[nH]c4c2)Nc2ccccc2O3)n1 [Compound 1a] | > 50 µM | > 50 | ≤ 14 µM | 32 ± 2.5 µM | 32 ± 2.5 | > 50 | – | 3.8 ± 0.46 µM | 17 ± 3 µM | – | 8.5 ± 0.34 µM | – | – | – | – | – | –
Cn1cc(Nc2nc(NCC(F)(F)F)c3nc[nH]c3n2)cn1 [Compound S21] | – | 50 | – | – | 28 ± 1.4 | > 50 | > 20 µM | > 20 µM | > 20 µM | – | – | – | – | – | – | – | –
Cn1cc(Nc2nc(NCCCC(F)(F)F)c3nc[nH]c3n2)cn1 [Compound S24] | – | 50 ± 0 | – | – | > 50 | > 50 | > 20 µM | > 20 µM | > 20 µM | – | – | – | – | – | – | – | –
CNc1nccc(-c2cc3c4c(n[nH]c4c2)Nc2ccccc2O3)n1 [Compound 1c] | > 50 µM | > 50 | – | 6.3 ± 0.55 µM | 6.3 ± 0.55 | 5.0 ± 0.11 | – | 3.3 ± 0.31 µM | 1.9 ± 1.3 µM | – | – | > 10 fold | > 10 fold | – | – | – | –
c1cc(-c2c[nH]c3ncc(-c4cnn(C5CCOCC5)c4)cc23)ccn1 [Compound S31] | – | 7.9 ± 2.3 | – | – | 5.7 ± 0.49 | 5.8 ± 0.43 | > 20 µM | > 20 µM | > 20 µM | – | – | – | – | – | – | – | –
Cc1c(-c2cnn(C3CCOCC3)c2)cnc2[nH]cc(-c3cccc(C#N)c3)c12 [Compound 4b] | > 50 µM | > 50 | – | 11 ± 1.5 µM | 11 ± 1.5 | > 50 | – | 11 ± 2.3 µM | 1 ± 0.12 µM | – | – | – | – | not toxic | – | – | –
CN(C)Cc1ccc(-c2cc3c(-c4cnn(C)c4)ccnc3[nH]2)cc1 [Compound 5c] | – | 14 ± 2.4 | – | – | < 0.62 | < 0.62 | 5.6 ± 0.29 µM | – | – | – | – | – | – | – | 11 ± 0.9 µM | < 0.62 µM | 12 ± 0.09 µM
O=C1OCc2ccc(Nc3nccc(Nc4cccc5c4C(=O)NC5)n3)cc21 [Compound S20, 7-((2-((3-oxo-1,3-dihydroisobenzofuran-5-yl)amino)pyrimidin-4-yl)amino)isoindolin-1-one] | – | > 50 | 3.3 ± 1 µM | – | > 50 | > 50 | – | > 20 µM | > 20 µM | – | – | – | – | – | – | – | –
